We go through 14 compounds from patent US7977342B2, “HCV inhibiting bi-cyclic pyrimidines” (Tibotec-Virco Virology BVBA, priority 2007, dated 2011).

Structures are written as SMILES.

The test system of the assay is HCV replicons (HCV RNA replication) in Huh-7 luc/neo cells. Put plainly: Stable replicon cell reporter assay (Huh-Luc, luciferase). The assay is classed as cell-based. Particulars: Hepatitis C virus, 72 h; Huh-Luc (Huh-7 luc/neo) cells, HCV type 1b NS3-NS5B replicon, luciferase readout, three days incubation. From the text: The compounds of the present invention were examined for activity in the inhibition of HCV RNA replication in a cellular assay. […] The cellular assay was based on a bicistronic expression construct, as described by Lohmann et al. (1999) Science vol. 285 pp. 110-113 with modifications described by Krieger et al. (2001) Journal of Virology 75: 4614-4624, in a multi-target screening strategy. In essence, the method was as follows.
The assay utilized the stably transfected cell line Huh-7 luc/neo (hereafter referred to as Huh-Luc). This cell line harbored an RNA encoding a bicistronic expression construct comprising the wild type NS3-NS5B regions of HCV type 1b translated from an Internal Ribosome Entry Site (IRES) from encephalomyocarditis virus (EMCV), preceded by a reporter portion (FfL-luciferase), and a selectable marker portion (neo^R, neomycine phosphotransferase). The construct was bordered by 5′ and 3′ NTRs (non-translated regions) from HCV type 1b. Continued culture of the replicon cells in the presence of G418 (neo^R) was dependent on the replication of the HCV RNA. The stably transfected replicon cells that expressed HCV RNA, which replicated autonomously and to high levels, encoding inter alia luciferase, were used for screening the antiviral compounds.
The replicon cells were plated in 384 well plates in the presence of the test and control compounds which were added in various concentrations. Following an incubation of three days, HCV replication was measured by assaying luciferase activity (using standard luciferase assay substrates and reagents and a Perkin Elmer ViewLux™ ultraHTS microplate imager). Replicon cells in the control cultures had high luciferase expression in the absence of any inhibitor. The inhibitory activity of the compound on luciferase activity was monitored on the Huh-Luc cells, enabling a dose-response curve for each test compound. EC50 values were then calculated, which value represented the amount of the compound required to decrease by 50% the level of detected luciferase activity, or more specifically, the ability of the genetically linked HCV replicon RNA to replicate.
In general terms: A replicon is a self-replicating genome or part of one, used to study replication in cells.
One may read the EC50 as the midpoint of the concentration-response curve. In turn, `Cc1noc2nc(-c3cc(Cl)ccc3F)nc(Nc3ccncc3)c12` [Compound 8] registered an EC50 of 400 nM.

With `Cc1cnccc1Nc1nc(-c2cc(Cl)ccc2F)nc2c1CCC2` [Compound 20], a half-maximal response (EC50) required 700 nM.

`NC(=O)c1cnccc1Nc1nc(-c2cc(Cl)ccc2F)nc2c1CCC2` [Compound 21] registered a half-maximal effective concentration (EC50) of 400 nM.

`CNC(=O)c1cnccc1Nc1nc(-c2cc(Cl)ccc2F)nc2c1CCC2` [Compound 35] displayed a 50% effective concentration (EC50) of 1500 nM.

Turning to `CNC(=O)c1cnccc1Nc1nc(-c2cc(Cl)ccc2F)nc2c1CCCC2` [Compound 40], it took 7300 nM to reach a half-maximal effect (EC50).

Turning to `CC1CCc2nc(-c3cc(Cl)ccc3F)nc(Nc3ccncc3C(N)=O)c21` (centres unmarked) [Compound 46], the EC50 is 1600 nM.

With `CNC(=O)c1cnccc1Nc1nc(-c2cc(Cl)ccc2F)nc2c1C(C)CC2` (centres unmarked) [Compound 47, 4-[2-(5-Chloro-2-fluorophenyl)-5-methyl-6,7-dihydro-5H-cyclopentapyrimidin-4-ylamino]-N-methyl-nicotinamide], the concentration giving a half-maximal response (EC50) came to 27700 nM.

Regarding `CC1CCc2nc(-c3cc(Cl)ccc3F)nc(Nc3ccncc3C(=O)O)c21` (centres unmarked) [Compound 49, 4-[2-(5-Chloro-2-fluorophenyl)-5-methyl-6,7-dihydro-5H-cyclopentapyrimidin-4-ylamino]-nicotinic acid], the EC50 was found to be 13100 nM.

Turning to `C[C@H](O)CNC(=O)c1cnccc1Nc1nc(-c2cc(Cl)ccc2F)nc2c1CCCC2` [Compound 57], the EC50 stood at 24000 nM.

`NNC(=O)c1cnccc1Nc1nc(-c2cc(Cl)ccc2F)nc2c1CCC2` [Compound 58] gave an EC50 of 10300 nM.

Consider `CCN(CC)CCNC(=O)c1cnccc1Nc1nc(-c2cc(Cl)ccc2F)nc2c1CCCC2` [Compound 59], for which the EC50 was 2000 nM.

`CC1(C)Cc2nc(-c3cc(Cl)ccc3F)nc(Nc3ccncc3C(N)=O)c2C1` [Compound 62, 4-[2-(5-Chloro-2-fluoro-phenyl)-6,6-dimethyl-6,7-dihydro-5H-cyclopentapyrimidin-4-ylamino]-nicotinamide] showed an EC50 of 800 nM.

`CN(C)CCCNC(=O)c1cnccc1Nc1nc(-c2cc(Cl)ccc2F)nc2c1CCC2` [Compound 69]: the EC50 was 1800 nM.

Take `Cc1cnccc1Nc1nc(-c2cc(Cl)ccc2F)nn2cccc12` [Compound 80]: the response was half-maximal at 5800 nM (EC50).
